From patent publication US11622966B2 (A2A Pharmaceuticals, Inc., priority 2018, dated 2023)
pIC50: −log10 of the molar value. Entries after “also recorded” stand apart in the source; their conditions may differ.

Legend:
JIMT-1 cells [1] = assay: Western blot of mitotic arrest, DNA damage and apoptosis markers; type: cell-based, human; conditions: 24 hours, Western blot (FIG. 6C)
[2] = test system: normal breast epithelial cells, MCF-12A; assay: Cell viability assay, normal breast cell line; type: cell-based
Experimental: Next, the specificity of BO-264 towards cancer cell lines over normal cells were tested.
(§1) KHS101 and SPL-B were dissolved in 100% DMSO to yield a stock concentration of 50 mM. Newly synthesized molecules were dissolved in 100% DMSO to yield a stock concentration of 10 mM. For cell viability assay, JIMT-1 (3×10^3 cells/well), BT-474 T-DM1R (6×10^3 cells/well), MDA-MB-436 (4×10^3 cells/well), MDA-MB-157 (3×10^3 cells/well) and MCF-12A (5×10^3 cells/well) cells were seeded, and 24 hours after cell seeding inhibitor treatments were performed at different concentrations. Cell viability was measured 72 hours after treatment with Cell Titer Glo assay as recommended by the manufacturer.

JIMT-1 xenografts = assay: Breast cancer xenograft experiments (JIMT-1 in mammary fat pad); type: in vivo, female athymic nude mice
Experimental: Six-to-eight-week-old female athymic nude mice were housed with a temperature-controlled and 12-hour light/12-hour dark cycle environment. This study was carried out in accordance with Institutional Animal Care and Use Committee of Bilkent University and performed according to the institution's guidelines and animal research principles. For in vivo tumor growth, 4×10^6 JIMT-1 cells were prepared in 150 μl of 1:1 DMEM and Matrigel (Corning, N.Y., USA), v/v) and injected into the mammary fat pads (MFP) of female nude mice. Mouse weight and tumor volume were measure daily using calipers. Tumor volumes were calculated as length×width×0.5. Once the tumor volume had reached about 100 mm^3, xenografts were randomized into groups.

[3] = test system: NCI-60 human cancer cell line panel; assay: NCI-60 cancer cell line panel five-dose screening (SRB); type: cell-based; conditions: read-out: GI50 (50% growth inhibition), NCI-60 five-dose screen, ~90% / almost all cell lines
Experimental: Detailed screening methodology can be accessed from the National Cancer Institute webpage. Briefly, 24 h after cell seeding into 96-well plates, they were treated with 5-log M concentration range of the compound for 2 days. Cytotoxicity was assessed using sulphorhodamine B (SRB) assay.

[4] = Stability in human liver microsomes; type: in vitro ADME; conditions: HLM
[5] = test system: JIMT-1, MDA-MB-436, MDA-MB-157 and BT-474 T-DM1R cell lines; assay: Cell viability assay (Cell Titer Glo), breast cancer cell line panel; type: cell-based, human; conditions: all cell lines tested, 72 hours, Cell Titer Glo (FIG. 6A)
TACC3 = target: T1, TACC3 (Homo sapiens, UniProt Q9Y6A5); assay: Target engagement assay (drug-target stabilization with increased temperature); type: binding; conditions: JIMT-1 cells
T1 construct: endogenous in cells; host or cells: JIMT-1

JIMT-1 cells [6] = assay: Colony formation assay; type: cell-based, human; conditions: 12 days, versus other two inhibitors at the same doses (FIG. 6B)
Experimental: For monolayer culture, single-cell suspensions of JIMT-1 cells (3×10^3 cells/well) were plated in a 12-well plate. […] For both experimental setups, the media were refreshed every 4 days, and cells were incubated for 12 days. Cells were then fixed with 2% paraformaldehyde for 15 min and stained with 1% crystal violet (Merck, Darmstadt, Germany) for 15 min at RT. Surviving colonies (composed of at least 50 cells) were counted with ImageJ software (NIH).

[7] = test system: JIMT-1 breast cancer cell lines; assay: Cell viability assay (Cell Titer Glo), JIMT-1; type: cell-based; conditions: Homo sapiens, JIMT-1 breast cancer cells, 72 hours, read-out: IC50, proliferation / cell viability of JIMT-1
Experimental: As mentioned before, none of the available TACC3 inhibitors, such as KHS101 and SPL-B has yet advanced to the clinical studies. […] For this purpose, it was performed in-house screening of a series of small molecules by testing their anti-proliferative effects in breast cancer cells in which TACC3 is aberrantly expressed (Ma et al., 2003; Song et al., 2018). Specifically, JIMT-1 cell line was chosen for screening the effect of compounds in cell viability due to its high TACC3 protein level compared to other tested breast cancer cell lines as well as its in vivo tumorigenicity (Saatci et al., 2018; Tanner et al., 2004) (will be discussed in FIGS. 8 and 9-10, respectively).
as §1

[8] = Stability in mouse liver microsomes; type: in vitro ADME; conditions: MLM
[9] = target: T2, Purified TACC3 recombinant protein (Homo sapiens, UniProt Q9Y6A5); assay: Isothermal titration calorimetry (ITC); type: binding; conditions: 25° C.
T2 construct: purchased Origene TP310754
Experimental: Titrations were carried out using Microcal 200 equipment (GE Healthcare, Austria) at 25° C. For each titration, 10 injections were made with 6 min spacing. The reference power was set at 2 μcal/sec, and the sample cell was continuously stirred at 500 rpm. In order to assess the binding efficiency between drug and protein, background data obtained by protein injected into buffer alone was subtracted from the experimental isotherms. The data was analyzed using Origin 7 Software provided along with the ITC200, and binding parameters such as association constant (Ka), number of binding sites (N) and enthalpy (ΔH) were calculated.

[10] = Plasma protein binding by equilibrium dialysis; type: in vitro ADME; conditions: human, 37° C.
[11] = Kinetic solubility in sodium phosphate buffer; type: physicochemical; conditions: sodium phosphate buffer pH 7.4, 25° C., 2 h
[12] = test system: glioblastoma (GBM) xenografts; conditions: Polson et al., 2018; cited from earlier work
[13] = 5 mg/kg (oral) every two days for 30 days (FIG. 9)

COc1ccc(-c2cc(Nc3ccnc(N4CCOCC4)n3)on2)cc1 [BO-264, 3-(4-methoxyphenyl)-N-(2-morpholinopyrimidin-4-yl)isoxazol-5-amine]
induction of mitotic arrest, DNA damage and apoptosis markers (JIMT-1 cells [1]): at lower doses compared to other two TACC3 inhibitors; also recorded: in a dose-dependent manner | inhibition at 10 µM ([2]; Homo sapiens, MCF-12A, 72 h, read-out: growth inhibition of MCF-12A cells): < 50% | effect on normal breast cell line ([2]; normal breast cell line): minor effects | body weight of mice (JIMT-1 xenografts; 2 mg/kg (oral or i.v) or 5 mg/kg (oral) every two days for 30 days (FIG. 10B)): did not have any negative effect | tumor growth rate compared with control group (JIMT-1 xenografts; 2 mg/kg i.v every two days for 30 days (FIG. 10A)): decreased | tumor growth rate compared with control group (JIMT-1 xenografts; 2 mg/kg oral every two days for 30 days (FIG. 10A)): decreased | body weight of mice (JIMT-1 xenografts; [13]): no negative effects | tumor growth compared to SPL-B (JIMT-1 xenografts; [13]): significant reduction of tumor growth | tumor growth rate compared with control group (JIMT-1 xenografts; 5 mg/kg (oral) every two days for 30 days (FIG. 10A)): the most significant effect on tumor growth | tumor growth compared to vehicle-treated mice (JIMT-1 xenografts; 25 mg/kg oral for 23 days (FIG. 11A)): very significant reduction of tumor growth | tumor weights compared to vehicle group (JIMT-1 xenografts; 25 mg/kg oral for 23 days (FIG. 11B)): significantly lower | mice weight / tolerability (JIMT-1 xenografts; 25 mg/kg oral for 23 days (FIG. 11C)): well tolerated | GI50 [3]: < 1000 nM | stability in human liver microsomes [4]: low stability | IC50 values compared with KHS101 and SPL-B [5]: significantly lower IC50 values than the two available TACC3 inhibitors | TACC3-BO-264 binding (TACC3): validated | average colony number of JIMT-1 cells (JIMT-1 cells [6]): significantly lower | pIC50 [7]: 6.63 | stability in mouse liver microsomes [8]: low stability | N (number of binding sites) [9]: 0.704 | ΔH [9]: 49290 kcal/mol | ΔS [9]: 1.65E5 cal/mol/deg | K (association constant) ([9]; titration of TACC3 into BO-264): 6.23E8 | fraction unbound [10]: 0.0113 | solubility [11]: low solubility

CC(C)CNc1ccnc(NCc2csc(-c3ccccc3)n2)n1 [KHS101, reference compound]
induction of mitotic arrest, DNA damage and apoptosis markers (JIMT-1 cells [1]): at considerably higher doses; also recorded: only observed at very high doses | tumor growth of glioblastoma (GBM) xenografts [12]: suppressed
